Measured values as given in patent US12685746B2, “Cyclodextrin derivatives in the treatment or prevention of lysosomal neurodegenerative diseases” (CYCLOLAB CYCLODEXTRIN RESEARCH AND DEVELOPMENT LABORATORY …, priority 2020, dated 2026).
“Also recorded” adds a separate entry of the source.

Columns and labels:
[1] = tested on: zebrafish model for Niemann Pick type C1 (U18666A administration); test: Filipin staining of five day old zebrafish larvae pretreated with U18666A (cholesterol accumulation in the brain); assay type: in vivo, Danio rerio; conditions: for Reduction in U18666A induced cholesterol accumulation in the brain: result in words; for Heavy staining (number of larvae) / Light staining (number of larvae) / No staining (number of larvae): U18666A pretreated 5 dpf larvae; for No staining (number of larvae): fluorescence in head region; for Different from placebo: X2-test vs U18666A-placebo
Protocol: Several cyclodextrin derivatives were evaluated in a zebrafish model for Niemann Pick type C1 (U18666A administration). Cholesterol accumulation in the brain was quantified by filipin staining of Danio rerio Casper (albino strain) larvae. Results were compared with the reference compound Hydroxypropyl-β-cyclodextrin (HPBCD).
In this study the best performing Cyclodextrins were as follows: Heptakis(2,6-di-O-methyl)-beta cyclodextrin, Octakis(2,3,6-tri-O-methyl)-gamma cyclodextrin, Sualfadex sodium, Subetadex sodium Sugammadex sodium. Filipin staining of five day old zebrafish larvae (Danio rerio, Casper strain) pretreated with U18666A were studied.
Fertilized eggs were hatched and kept in an incubator at 28° C.
CDs were administered from Stock solutions (0.1%) in standard E3 medium. Preparation of E3 medium was as follows:
The stock solutions were diluted with E3. Compounds were administered in the swimming water. Each concentration was tested in 25 larvae.
Experimental compounds were tested at a 0.05% concentration. As reference Hydroxypropyl-β-cyclodextrin (Sigma) was tested at a 0.5% concentration.
Treated 5 dpf Casper larvae were fixed for 30 minutes in 4% paraformaldehyde. After washing (2 times) with PBS, they were stained for 30 minutes with 50 μg/mL filipin (Sigma) in PBS solution. Then larvae were washed (with PBS) twice.
Whole larvae were embedded and images were captured on a Dino-Lite Digital USB microscope for GFP/FITC recordings (AM4115T4). Images were evaluated by an independent assessor, unaware of the treatments. The assessor scored the fluorescence in the head region as none, light or heavy.
Data were analysed by means of X2-tests. All conditions were compared to the U18666A—placebo treatment group.
Fluorescence was measured as an index for the amount of filipin staining. The higher the filipin staining the more cholesterol accumulation there is in the brain. Individual larvae were scored (by a blinded assessor) as either heavy coloured, light coloured or not coloured at all.

[2] = tested on: 5 dpf Danio rerio larvae treated with U18666A; test: Mobility testing of U18666A-treated zebrafish larvae (DanioVision, distance moved); assay type: in vivo; conditions: U18666A 1 microg/ml 16 hours, then CD 24 hours (0.5-5%); result in words, values only in FIG. 1
Protocol: Danio rerio larvae (strain AB, Casper) 5 days post fertilization (dpf) at day of testing were treated with U18666A dissolved in standard E3 medium. Reversal of U18666A (1 microg/ml) effects on overall activity of 5 dpf Danio rerio larvae by different CDs at different concentrations (0.5-5%) were tested. Larvae were pretreated with U18666A for 16 hours and thereafter treated with CD for 24 hours. Statistical analyses were performed for the individual experiments with two way ANOVA's followed by Tukey post hoc tests (** p<0.01). CDs were dissolved in standard E3 medium.
DanioVision Observation Chamber which is a complete system, designed for the high-throughput testing of zebrafish larvae in 48-wells plates. It includes an observation chamber and renowned EthoVision XT video tracking software to quantify distance moved by the animals. The results are graphically represented (distance moved—in arbritrary unit) in FIG. 1.

[3] = Phase solubility study: interaction of cyclodextrins with unesterified cholesterol; assay type: physicochemical; conditions: 24 hours equilibration at 25±3° C.
Protocol: Phase solubility studies were performed in 5 ml solutions at room temperature, wherein cyclodextrin solutions of discrete concentrations were weighed and excess amount of cholesterol was added. After 24 hours equilibration time at 25±3° C. (using magnetic stirrer at 500 RPM), the dissolved equilibrium cholesterol concentrations were determined by HPLC after filtration through a syringe filter having polyethylene sulfone membrane of 0.45 micron nominal pore size. The experimentally determined cholesterol concentrations in the presence of different concentrations of HPBCD, Sualfadex sodium, Subetadex sodium and Sugammadex sodium are listed in Table 3.

[4] = literature studies; cited from earlier work
[5] = dose tested 0.05% in swimming water
[6] = dose tested 0.5% in swimming water

Dissolved cholesterol concentration ([3]; CD concentration 5 w/w %) [mg/mL] | Dissolved cholesterol concentration ([3]; CD concentration 10 w/w %) [mg/mL] | Dissolved cholesterol concentration ([3]; CD concentration 15 w/w %) [mg/mL] | Compound | Reduction in U18666A induced cholesterol accumulation in the brain ([1]; 0.05%, sodium salt) | Heavy staining (number of larvae) [1, 5] | Light staining (number of larvae) [1, 5] | No staining (number of larvae) [1, 5] | Different from placebo ([1]; dose tested 0.05%) | Motoric activity of the test animals [2] | Reduction in U18666A induced cholesterol accumulation in the brain ([1]; 0.5%) | Heavy staining (number of larvae) [1, 6] | Light staining (number of larvae) [1, 6] | No staining (number of larvae) [1, 6] | Different from placebo ([1]; dose tested 0.5%) | Ototoxicity [4] | Reduction in U18666A induced cholesterol accumulation in the brain ([1]; 0.05%)
0.062 | 0.092 | 0.246 | 6A,6B,6C,6D,6E,7F,6G-Heptakis-S-(2-carboxyethyl)-6A,6B,6C,6D,6E,6F,6G-heptathio-beta-cyclodextrin sodium salt [Subetadex sodium] | significant cholesterol-accumulation hindering activity; also recorded: very strong reduction | 5 | 15 | 4 | *** (*** p<0.001) | improved motoric activity | – | – | – | – | – | – | –
0.28 | 0.98 | 2.06 | CC(O)COC[C@H]1O[C@@H]2O[C@H]3[C@H](O)[C@@H](O)[C@@H](O[C@H]4[C@H](O)[C@@H](O)[C@@H](O[C@H]5[C@H](O)[C@@H](O)[C@@H](O[C@H]6[C@H](O)[C@@H](O)[C@@H](O[C@H]7[C@H](O)[C@@H](O)[C@@H](O[C@H]8[C@H](O)[C@@H](O)[C@@H](O[C@H]1[C@H](O)[C@H]2O)O[C@@H]8COCC(C)O)O[C@@H]7COCC(C)O)O[C@@H]6COCC(C)O)O[C@@H]5COCC(C)O)O[C@@H]4COCC(C)O)O[C@@H]3COCC(C)O (stereo partly drawn) [HPBCD, Hydroxypropyl-β-cyclodextrin] | – | – | – | – | – | – | significantly reduced | 9 | 13 | 2 | * (* p<0.05) | ototoxic | –

The next lines start with the compound.

Compound | Dissolved cholesterol concentration ([3]; CD concentration 5 w/w %) [mg/mL] | Dissolved cholesterol concentration ([3]; CD concentration 10 w/w %) [mg/mL] | Dissolved cholesterol concentration ([3]; CD concentration 15 w/w %) [mg/mL] | Reduction in U18666A induced cholesterol accumulation in the brain ([1]; 0.05%, sodium salt) | Heavy staining (number of larvae) [1, 5] | Light staining (number of larvae) [1, 5] | No staining (number of larvae) [1, 5] | Different from placebo ([1]; dose tested 0.05%) | Motoric activity of the test animals [2] | Reduction in U18666A induced cholesterol accumulation in the brain ([1]; 0.5%) | Heavy staining (number of larvae) [1, 6] | Light staining (number of larvae) [1, 6] | No staining (number of larvae) [1, 6] | Different from placebo ([1]; dose tested 0.5%) | Ototoxicity [4] | Reduction in U18666A induced cholesterol accumulation in the brain ([1]; 0.05%)
COC[C@H]1O[C@@H]2O[C@H]3[C@H](O)[C@@H](OC)[C@@H](O[C@H]4[C@H](O)[C@@H](OC)[C@@H](O[C@H]5[C@H](O)[C@@H](OC)[C@@H](O[C@H]6[C@H](O)[C@@H](OC)[C@@H](O[C@H]7[C@H](O)[C@@H](OC)[C@@H](O[C@H]8[C@H](O)[C@@H](OC)[C@@H](O[C@H]1[C@H](O)[C@H]2OC)O[C@@H]8COC)O[C@@H]7COC)O[C@@H]6COC)O[C@@H]5COC)O[C@@H]4COC)O[C@@H]3COC [Heptakis(2,6-di-O-methyl)-beta cyclodextrin] | – | – | – | – | 13 | 9 | 1 | – | – | – | – | – | – | – | – | only a small, non-significant, reduction
COC[C@H]1O[C@H]2O[C@H]3[C@H](OC)[C@@H](OC)[C@H](O[C@H]4[C@H](OC)[C@@H](OC)[C@H](O[C@H]5[C@H](OC)[C@@H](OC)[C@H](O[C@H]6[C@H](OC)[C@@H](OC)[C@H](O[C@H]7[C@H](OC)[C@@H](OC)[C@H](O[C@H]8[C@H](OC)[C@@H](OC)[C@H](O[C@H]9[C@H](OC)[C@@H](OC)[C@H](O[C@H]1[C@H](OC)[C@H]2OC)O[C@@H]9COC)O[C@@H]8COC)O[C@@H]7COC)O[C@@H]6COC)O[C@@H]5COC)O[C@@H]4COC)O[C@@H]3COC [Octakis(2,3,6-tri-O-methyl)-gamma cyclodextrin] | – | – | – | – | 13 | 11 | 0 | – | – | – | – | – | – | – | – | only a small, non-significant, reduction
O=C([O-])CCSC[C@H]1O[C@@H]2O[C@H]3[C@H](O)[C@@H](O)[C@@H](O[C@H]4[C@H](O)[C@@H](O)[C@@H](O[C@H]5[C@H](O)[C@@H](O)[C@@H](O[C@H]6[C@H](O)[C@@H](O)[C@@H](O[C@H]7[C@H](O)[C@@H](O)[C@@H](O[C@H]1[C@H](O)[C@H]2O)O[C@@H]7CSCCC(=O)[O-])O[C@@H]6CSCCC(=O)[O-])O[C@@H]5CSCCC(=O)[O-])O[C@@H]4CSCCC(=O)[O-])O[C@@H]3CSCCC(=O)[O-].[Na+].[Na+].[Na+].[Na+].[Na+].[Na+] [Sualfadex sodium, 6A,6B,6C,6D,6E,7F-Hexakis-S-(2-carboxyethyl)-6A,6B,6C,6D,6E,6F-hexathio-alpha-cyclodextrin sodium] | 0.016 | 0.028 | 0.051 | – | 4 | 16 | 4 | *** (*** p<0.001) | improved motoric activity | – | – | – | – | – | – | significant cholesterol-accumulation hindering activity; also recorded: very strong reduction
O=C([O-])CCSC[C@H]1O[C@@H]2O[C@H]3[C@H](O)[C@@H](O)[C@@H](O[C@H]4[C@H](O)[C@@H](O)[C@@H](O[C@H]5[C@H](O)[C@@H](O)[C@@H](O[C@H]6[C@H](O)[C@@H](O)[C@@H](O[C@H]7[C@H](O)[C@@H](O)[C@@H](O[C@H]8[C@H](O)[C@@H](O)[C@@H](O[C@H]9[C@H](O)C(O)[C@@H](O[C@H]1[C@H](O)[C@H]2O)O[C@@H]9CSCCC(=O)[O-])O[C@@H]8CSCCC(=O)[O-])O[C@@H]7CSCCC(=O)[O-])O[C@@H]6CSCCC(=O)[O-])O[C@@H]5CSCCC(=O)[O-])O[C@@H]4CSCCC(=O)[O-])O[C@@H]3CSCCC(=O)[O-].[Na+].[Na+].[Na+].[Na+].[Na+].[Na+].[Na+].[Na+] (stereo partly drawn) [Sugammadex sodium, 6A,6B,6C,6D,6E,7F,6G,6H-Octakis-S-(2-carboxyethyl)-6A,6B,6C,6D,6E,6F,6G,6H-octathio-gamma-cyclodextrin sodium salt] | 0.056 | 0.062 | 0.150 | significant cholesterol-accumulation hindering activity; also recorded: very strong reduction | 4 | 15 | 5 | *** (*** p<0.001) | improved motoric activity | – | – | – | – | – | – | –
